Earlier results on three substances are cited in US7678762B2, “Methods for reducing the risk of hypoglycemia” (DiObex, Inc., priority 2002, dated 2010).

The conditions of data set [1]: relative to normal glucagon.
For data set [2] the following is noted: relative to normal glucagon. This is another data set of the same source.

For “glucagon variant with a Phe at position 18: glucagon variant with a Phe at position 18”, the binding affinity in data set [1] is recorded as 4.7%. For the same substance, the relative potency in data set [2] is reported as 0.9%.

“variant glucagon Lys 17 and 18, Glu 21: variant glucagon with a Lys substitution at positions 17 and 18 and a Glu substitution at position 21 (Sturm et al.) (HSQGTFTSDYSKYLDSKKAQEFVQWLMNT; Glucagon; UniProt P01275 53-81, looked up, variant R17K R18K D21E)”: the binding affinity in data set [1] is listed as 500%. Moreover, the relative potency in data set [2] was 700%.

Regarding “variant glucagon amide Lys 17: variant glucagon amide with only a Lys substitution at position 17”, the binding affinity in data set [1] is listed as 220%. Besides, the relative potency in data set [2] is recorded as 230%.
